From patent US7101988B2, “Polyvalent cation-sensing receptor in Atlantic salmon” (MariCal, Inc., priority 2000, dated 2006)
Positions count from the first letter of the chain named. Read-outs that look alike come from different tables or passages of the source.

Tests used:
SKCaR = assay: FURA 2 based assay of SKCaR activation in transfected HEK cells; assay type: cell-based, dogfish shark (Squalus acanthias); settings: for alteration in SKCaR sensitivity to Ca2+: increasing extracellular NaCl, sucrose as osmolality control; for effect of amino acids on SKCaR's response to Ca2+: 10 mM Phe, 10 mM Ile or AA Mixture, FURA-2
Source text: SKCaR cDNA was ligated into the mammalian expression vector PCDNA II and transfected into HEK cells using standard techniques. The presence of SKCaR protein in transfected cells was verified by western blotting. Activation of SKCaR by extracellular Ca2+, Mg2+ or NaCl was quantified using a well characterized FURA 2 based assay where increases in intracellular Ca2+ produced by SKCaR activation are detected using methodology published previously by Bai, M., S. Quinn, S. Trvedi, O. Kifor, S. H. S. Pearce, M. R. Pollack, K. Krapcho, S. C. Hebert and E. M. Brown. Expression and characterization of inactivating and activating mutations in the human Ca2+-sensing receptor. J. Biol. Chem., 32:19537–19545 (1996); and expressed as % normalized intracellular calcium response to receptor activation.
Full length recombinant dogfish (Squalas acanthias) shark kidney calcium receptor (SKCaR) was expressed in human embryonic kidney cells using methods described herein. The ability of SKCaR to respond to individual amino acids as well as various mixtures was quantified using FURA-2 ratio imaging fluorescence.
Baseline extracellular Ca^2+ concentration was 0.5 mM. Aliquots of Ca^2+ were added to produce final extracellular concentrations of 2.5 mM, 5 mM, 7.5 mM, 10 mM and 20 mM Ca^2+ with changes in the fluorescence recorded. Note that increases in cell fluorescence were greater in the presence of 10 mM Phe for extracellular Ca^2+ concentrations less than 10 mM.

[1] = tested on: olfactory epithelium of freshwater adapted juvenile Atlantic salmon; assay: Extracellular electrical potentials (EEG) from olfactory nerve; assay type: in vivo; settings: for olfactory nerve response to stimulus: 500 micromolar L-alanine, 1 mM Ca2+, 250 mM NaCl, 50 micromolar Gd3+; for effect on olfactory nerve response to 500 micromolar L-alanine: 5 mM Ca2+, 50 micromolar Gd3+ or 250 mM NaCl; for effect on olfactory epithelium response to mammalian finger rinse: 5 mM Ca2+ or 50 micromolar Gd3+
Source text: Physiol. A 127:157–166 (1975), and Hubbard, P C, et al., Olfactory sensitivity to changes in environmental Ca2+ in the marine teleost Sparus Aurata, J. Exp. Biol. 203:3821–3829 (2000). After anaesthetizing the fish, it was placed in V-clamp apparatus where its gills were irrigated continuously with aerated seawater and its nasal lamellae bathed continuously by a stream of distilled water via a tube held in position in the inhalant olfactory opening. The olfactory nerves of the fish were exposed by removal of overlying bony structures. Stimuli were delivered as boluses to the olfactory epithelium via a 3 way valve where 1 cc of water containing the stimulus was rapidly injected into the tube containing a continuously stream of distilled water. […] Using this experimental approach, stable and reproducible recordings could be obtained for up to 6 hr after the initial surgery on the fish.

HuPCaR [2] = biological target: T1, HuPCaR (Homo sapiens, UniProt P41180, R227L); settings: HuPCaR AA #227 altered to Leu; read-out: EC50 Ca2+; cited from earlier work
T1 sequence (P41180 20-1078 R227L): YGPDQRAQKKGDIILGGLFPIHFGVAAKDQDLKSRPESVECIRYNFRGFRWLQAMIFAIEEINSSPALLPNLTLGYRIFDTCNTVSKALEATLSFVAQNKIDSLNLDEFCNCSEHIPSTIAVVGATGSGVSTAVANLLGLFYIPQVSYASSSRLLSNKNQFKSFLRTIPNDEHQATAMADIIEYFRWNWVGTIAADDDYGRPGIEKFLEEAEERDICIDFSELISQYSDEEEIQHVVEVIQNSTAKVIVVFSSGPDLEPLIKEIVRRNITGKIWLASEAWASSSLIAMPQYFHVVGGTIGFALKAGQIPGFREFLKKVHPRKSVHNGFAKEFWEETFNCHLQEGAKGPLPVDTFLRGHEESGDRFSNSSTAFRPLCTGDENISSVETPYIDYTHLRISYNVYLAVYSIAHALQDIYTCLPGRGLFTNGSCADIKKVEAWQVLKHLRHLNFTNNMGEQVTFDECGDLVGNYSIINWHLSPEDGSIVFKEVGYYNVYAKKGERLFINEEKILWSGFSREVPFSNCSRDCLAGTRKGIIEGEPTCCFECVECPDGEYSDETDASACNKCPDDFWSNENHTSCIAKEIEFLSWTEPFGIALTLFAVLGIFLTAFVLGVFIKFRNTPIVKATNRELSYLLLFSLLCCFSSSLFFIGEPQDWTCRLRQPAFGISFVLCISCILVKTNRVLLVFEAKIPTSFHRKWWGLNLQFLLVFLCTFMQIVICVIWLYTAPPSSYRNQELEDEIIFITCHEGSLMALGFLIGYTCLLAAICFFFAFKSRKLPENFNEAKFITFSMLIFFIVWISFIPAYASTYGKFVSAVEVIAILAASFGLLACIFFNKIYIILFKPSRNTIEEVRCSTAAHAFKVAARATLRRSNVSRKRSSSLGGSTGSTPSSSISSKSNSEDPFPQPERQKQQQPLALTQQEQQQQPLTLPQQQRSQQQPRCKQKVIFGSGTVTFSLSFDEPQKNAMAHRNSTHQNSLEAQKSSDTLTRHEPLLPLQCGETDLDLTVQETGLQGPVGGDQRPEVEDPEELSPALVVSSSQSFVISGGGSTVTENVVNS

HuPCaR [3] = biological target: T2, HuPCaR (Homo sapiens, UniProt P41180); settings: HuPCaR with Arg at AA #227; read-out: EC50 Ca2+; cited from earlier work
T2 sequence (P41180 20-1078): T1 sequence (P41180 20-1078 R227L) with L208R

[4] = normalized to response to 10 mM Ca2+

SMILES: OC[C@H]1O[C@@](CO)(O[C@H]2O[C@H](CO)[C@@H](O)[C@H](O)[C@H]2O)[C@@H](O)[C@@H]1O [sucrose]
- alteration in SKCaR sensitivity to Ca2+ (SKCaR): not observed

SMILES: C[C@H](N)C(=O)O [L-alanine]
- duration of olfactory nerve response ([1]; 500 micromolar): approximately 2 seconds
- olfactory nerve response to stimulus [1]: large increases in both the firing frequency and amplitude in the olfactory nerve

SMILES: [Cl-].[Na+] [NaCl, sodium chloride]
- effect on olfactory nerve response to 500 micromolar L-alanine [1]: resulted initially in a similar response
- olfactory nerve response to stimulus [1]: produce responses in EEG activity
- concentration until which olfactory epithelium is unresponsive ([1]; in vivo): 250 millimolar
- alteration in SKCaR sensitivity to Ca2+ (SKCaR): reduce the sensitivity of SKCaR to Ca2+

SMILES: N[C@@H](Cc1ccccc1)C(=O)O [Phe, L-Phenylalanine]
- effect of amino acids on SKCaR's response to Ca2+ (SKCaR): increase SKCaR's response to a given Ca^2+ concentration
- increases in cell fluorescence (SKCaR; 10 mM, extracellular Ca2+ less than 10 mM): greater

SMILES: [Gd+3] [Gd^3+, gadolinium]
- effect on olfactory epithelium response to mammalian finger rinse [1]: reversibly ablated the response
- effect on olfactory nerve response to 500 micromolar L-alanine [1]: complete loss of the corresponding response
- olfactory nerve response to stimulus [1]: obtained a response
- concentration at which olfactory epithelium responses occur [1, 4]: 1 to 10 µM

SMILES: CC[C@H](C)[C@H](N)C(=O)O [Ile, L-Isoleucine]
- effect of amino acids on SKCaR's response to Ca2+ (SKCaR): increase SKCaR's response to a given Ca^2+ concentration

SMILES: [Ca+2] [Ca2+, calcium]
- EC50 (HuPCaR [2]): 9.3 mM
- EC50 (HuPCaR [3]): 4 mM
- effect on olfactory epithelium response to mammalian finger rinse [1]: reversibly ablated the response
- effect on olfactory nerve response to 500 micromolar L-alanine [1]: complete loss of the corresponding response
- olfactory nerve response to stimulus [1]: produce responses in EEG activity
- EC50 ([1]; normalized to response to 10 mM Ca2+, read-out: half maximal excitatory response (EC50)): 0.001 to 0.01 mM
- effect of added Ca2+ on sensitivity of SKCaR to Mg2+ (SKCaR; 3 mM Ca2+ added, as a function of extracellular NaCl): increases the sensitivity of SKCaR to Mg2+
- EC50 (SKCaR; depending on the extracellular concentration of NaCl, read-out: half maximal activation of SKCaR by extracellular Ca2+): 1 to 15 mM
- EC50 (SKCaR; extracellular NaCl 50 mM, read-out: EC50 for Ca2+): < 5 mM
- EC50 (SKCaR; extracellular NaCl 550 mM, read-out: EC50 for Ca2+): ~18 mM

SMILES: [Mg+2] [Mg2+, magnesium]
- concentration at which olfactory epithelium responses occur [1, 4]: 10 to 100 µM
- range of extracellular Mg2+ in which SKCaR is activated (SKCaR): 5 to 40 mM
- EC50 (SKCaR; extracellular NaCl 50 mM, read-out: EC50 for Mg2+): < 20 mM
- EC50 (SKCaR; extracellular NaCl 550 mM, read-out: EC50 for Mg2+): ~80 mM
